Read-outs that look alike come from different tables or passages of the source.
Key:
[1] = tested on: fetal rat calvaria (osteoblast) cells; details: in vitro; cited from earlier work
mouse calvaria = details: in vitro organ culture; cited from earlier work
[2] = tested on: primary rat calvaria (osteoblast) cultures; details: in vitro; cited from earlier work
Saos-2 cells = details: cited from earlier work
G292 cells = details: cited from earlier work
closed femur fracture [3] = assay: Rat closed femur fracture healing, radiographs (Example 4); type: in vivo, Sprague-Dawley rats; details: treated rats vs untreated rats
Procedure: (§1) Sprague-Dawley rats (3 months old) underwent a standard closed femur fracture procedure as described in the art (Simon et al. Journal of Bone and Mineral Research, 17(6): 963-976 (2002); Bonnarens and Einhorn, Production of a standard closed fracture in laboratory animal bone. Journal of Orthopaedic Research, 2: 97-101 (1984)). The impending fracture was stabilized with an intramedullary stainless steel pin. Beginning 4 hours after fracture the rats were treated with vehicle (1% methylcellulose) or inhibitors of 5-LO suspended in 1% methylcellulose Inhibitor A (NDGA) was administered at 30 mg/kg and Inhibitor B (AA-861) was administered at 5 mg/kg. The day after surgery and continuing until day 21 post-fracture, experimental rats were treated with 2 doses of inhibitor (either A or B), the first dose between […] and then again with another dose 8-10 hours later. Control rats were treated similarly but with carrier only (1% methylcellulose). Three weeks after fracture the rats were anesthetized and high resolution radiographs were made of the fractured femurs using a Packard Faxitron and Kodak MinR2000 mammography film (FIGS. 8A, 8B, and 8C). Five weeks after fracture the rats were sacrificed, femurs resected, and assayed for structural mechanical properties by torsional mechanical testing (FIG. 8D).

closed femur fracture [4] = assay: Torsional mechanical testing of fractured rat femurs (Example 4); type: in vivo, Sprague-Dawley rats; details: 5 weeks of healing; for greater peak torque than vehicle treated rats: Inhibitor A 30 mg/kg, Inhibitor B 5 mg/kg, 2 doses daily until day 21; for mode of femur failure in torsional testing (boney union vs non-union): all femurs, vehicle 13% (2 of 15) non-unions
Procedure: as §1
Torsional mechanical testing was used to measure the peak torque sustained by each femur after 5 weeks of healing.

[5] = higher concentration (0.3-1 micromolar)

Compound | alkaline phosphatase activity [1] | bone nodule formation [1] | BMP2 induced increase in mouse calvaria thickness (mouse calvaria) | proliferation of primary rat osteoblast cultures [2] | proliferation of Saos-2 cells (Saos-2 cells; concentration not given) | osteogenesis / fracture healing (FIG. 8, x-rays) (closed femur fracture [3]) | greater peak torque than vehicle treated rats (closed femur fracture [4]) [%] | mode of femur failure in torsional testing (boney union vs non-union) (closed femur fracture [4]) | also measured
CCCCC/C=C\C[C@@H](O)/C=C/C=C/C=C\[C@@H](O)CCCC(=O)O [LTB4] | reduce | reduce | prevented | reduces proliferation | – | – | – | – | proliferation of Saos-2 cells (Saos-2 cells; [5]): promote proliferation; proliferation of G292 cells (G292 cells; [5]): promote proliferation
CCCCC/C=C\C\C=C/C=C/C=C/[C@@H](SC[C@H](NC(=O)CC[C@H](N)C(=O)O)C(=O)NCC(=O)O)[C@@H](O)CCCC(=O)O [LTC4] | – | – | – | no effect | no effect | – | – | – | proliferation of G292 cells (G292 cells; concentration not given): promote proliferation
CC1=C(C)C(=O)C(CCCCC#CCCCC#CCO)=C(C)C1=O [Inhibitor B, 2-(12-hydroxydodeca-5,10-diynyl)-3,5,6-trimethyl-1,4-benzoquinone] | – | – | – | – | no effect | accelerated | 53 | failed as boney unions | –
5-hydroxyeicosatetraenoic acid [Inhibitor 5-HETE] | reduce | reduce | prevented | – | – | – | – | – | –
CCCCC/C=C\C\C=C/C=C/C=C/[C@@H](SC[C@H](N)C(=O)NCC(=O)O)[C@@H](O)CCCC(=O)O [LTD4] | no effect | no effect | – | – | – | – | – | – | –
CC(Cc1ccc(O)c(O)c1)C(C)Cc1ccc(O)c(O)c1 (stereo not drawn) [Inhibitor A, nordihydroguaiaretic acid] | – | – | – | – | – | accelerated | 22 | failed as boney unions | –

From US8980851B2, “Methods for bone treatment by modulating an arachidonic acid metabolic or signaling pathway” (Accelalox, Inc., priority 2005, dated 2015)
